Where a name gives a salt, the structure may show the parent alone. Read-outs that look alike come from different tables or passages of the source.
Tested on: murine neural precursor cells (neurosphere cultures)
Test: HTS of LOPAC library against secondary neurosphere cultures, MTT proliferation assay at 3 μM, day 7 (z score, P value)
Assay type: cell-based, mouse
[1] = LOPAC library screen at 3 μM, secondary neurosphere cultures, MTT
[2] = LOPAC primary screen, neurosphere MTT proliferation, 3 μM, day 7
[3] = yes = significantly inhibited neurosphere proliferation (P<0.01) in the primary screen
[4] = LOPAC library screen, 3 μM, MTT, secondary neurosphere cultures, day 7
[5] = yes/no: significantly inhibited neurosphere proliferation in primary screen
[6] = yes/no: significantly inhibited neurosphere proliferation (P<0.01) in the primary screen
[7] = yes/no: significantly inhibited neurosphere proliferation (P<0.01) in primary screen
[8] = LOPAC screen, neurosphere MTT proliferation, 3 μM, day 7
[9] = LOPAC library screen, 3 μM, MTT, neurosphere cultures
[10] = primary LOPAC screen, 3 μM, MTT, neurosphere proliferation
[11] = yes/no: significantly inhibited neurosphere proliferation in the primary screen

Metaproterenol hemisulfate
Z Score [1]: −1.022
Z score [2]: −1.022
Activity [3]: no

CC(N/C(=N\C#N)Nc1ccncc1)C(C)(C)C (stereo not drawn) [Pinacidil]
Z Score [4]: −2.117
Z score [2]: −2.117
Activity [5]: no

C[N+](C)(C)CC(=O)O [Betaine hydrochloride]
Z Score [4]: −2.668
Z score [2]: −2.668
Activity [6]: yes

C=C[C@H]1C[N@@]2CC[C@H]1C[C@H]2[C@H](O)c1ccnc2ccc(OC)cc12 [Quinine sulfate]
Z Score [1]: −0.2686
Z score [2]: −0.269
Activity [5]: no

O=[N+]([O-])c1ccc(CSc2ncnc3c2ncn3[C@@H]2O[C@H](CO)[C@@H](O)[C@H]2O)cc1 [S-(4-Nitrobenzyl)-6-thioinosine]
Z Score (168 h, 3 µM): −0.4271
Z score (168 h, 3 µM): −0.427
Activity [3]: no

CC(C)[C@@H]1NC(=O)[C@H](CCCCN)NC(=O)[C@@H](Cc2c[nH]c3ccccc23)NC(=O)[C@H](Cc2ccc(O)cc2)NC(=O)[C@H](C)N(C)C(=O)[C@H](Cc2ccccc2)NC1=O [Seglitide]
Z Score [1]: −0.662
Z score [2]: −0.662
Activity [5]: no

CC#CCOC(=O)c1c(C)nc2sc3c(c2c1N)CCC(O)C3 (stereo not drawn) [SB 205384]
Z Score: 0.7968
Z score [2]: 0.797
Activity [5]: no

N[C@H](CCCCCP(=O)(O)O)C(=O)O [D(−)-2-Amino-7-phosphonoheptanoic acid]
Activity: no
Z Score: 0.9855
Z score: 0.985

O=C(O)c1cc([N+](=O)[O-])ccc1NCCCc1ccccc1 [5-Nitro-2-(3-phenylpropylamino)benzoic acid]
Z Score (168 h, 3 µM): −0.7343
Z score (168 h, 3 µM): −0.734
Activity [3]: no

COCCOC(=O)C1=C(C)NC(C)=C(C(=O)OC(C)C)C1c1cccc([N+](=O)[O-])c1 (stereo not drawn) [Nimodipine]
Z Score [1]: −0.8542
Z score [2]: −0.854

NC(CP(=O)(O)O)C(=O)O (stereo not drawn) [(B1)-2-Amino-3-phosphonopropionic acid]
Z Score: 1.25

CC1CNCCN1S(=O)(=O)c1cccc2cnccc12.Cl.Cl (stereo not drawn) [1-(5-Isoquinolinylsulfonyl)-2-methylpiperazine dihydrochloride]
Z Score (168 h, 3 µM): 0.3352
Z score (168 h, 3 µM): 0.335
Activity [7]: no

C[C@@]1(C2CCCC2)Cc2cc(OCC(=O)O)c(Cl)c(Cl)c2C1=O [R(+)-IAA-94]
Z Score: −0.01015
Z score [2]: −0.010
Activity [7]: no

O=C(/C=C/c1ccc(O)c(O)c1)OCCc1ccccc1 [Caffeic acid phenethyl ester]
Z Score (168 h, 3 µM): 1.306
Z score (168 h, 3 µM): 1.306
Activity [7]: no

C[C@]12CC[C@@H](O)C[C@@H]1CC[C@@H]1[C@@H]2CC[C@]2(C)C(=O)CC[C@@H]12 [Androsterone]
Activity: no
Z Score: 1.947
Z score: 1.947

NC(=O)c1ccc(OCC(O)CN2CC=C(c3ccc(F)cc3)CC2)cc1 (stereo not drawn) [Ro 8-4304]
Z Score: −2.188
Z score [2]: −2.188
Activity [5]: no

CCNC(=O)[C@H]1O[C@@H](n2cnc3c(NCc4ccccc4)ncnc32)[C@H](O)[C@@H]1O [N6-Benzyl-5′-N-ethylcarboxamidoadenosine]
Z Score [1]: −0.7976
Z score [8]: −0.798
Activity [7]: no

COc1ccc(/C=C/C(=O)Nc2ccccc2C(=O)O)cc1OC [Tranilast]
Z Score [9]: 0.1736
Z score [10]: 0.174

COC(=O)C(N)Cc1ccc(Cl)cc1.Cl (racemic) [DL-p-Chlorophenylalanine methyl ester hydrochloride]
Z Score: 0.1276
Z score [8]: 0.128
Activity [7]: no

CC(C)Cc1ccc(C(C)C(=O)O)cc1 (stereo not drawn) [(B1)-Ibuprofen]
Z Score: −0.2623

CC(CCc1ccccc1)NC(C)C(O)c1ccc(O)cc1 (stereo not drawn) [Nylidrin hydrochloride]
Z Score [4]: −1.375
Z score [2]: −1.375
Activity [3]: no

CC(=O)NNC(=O)N1Cc2ccccc2Oc2ccc(Cl)cc21 [SC 19220]
Z Score: −1.64
Z score [2]: −1.640
Activity [5]: no

O=C1NC(=O)C(c2ccccc2)(c2ccccc2)N1 [Phenytoin sodium]
Z Score [1]: −0.2166
Z score [8]: −0.217
Activity [7]: no

N=C(N)NC(=O)c1nc(Cl)c(N2CCCCCC2)nc1N [5-(N,N-hexamethylene)amiloride]
Z Score [9]: 0.03855
Z score [10]: 0.039
Activity [11]: no

CN1CCN(C2Cc3ccccc3Sc3ccc(Cl)cc32)CC1.O=C(O)/C=C\C(=O)O (stereo not drawn) [(B1)-Octoclothepin maleate]
Z Score: 1.473

CCN1CCCC1CNC(=O)c1cc(S(N)(=O)=O)ccc1OC (single isomer, unassigned; (-)) [(−)-Sulpiride]
Z Score [4]: −2.647
Z score [2]: −2.647
Activity [6]: yes

Br.NC1CCc2cc(O)c(O)cc2C1 (stereo not drawn) [6,7-ADTN hydrobromide]
Z Score [9]: 0.357
Z score [8]: 0.357
Activity [7]: no

Cn1cc(C(=O)OCC2CCN(CCNS(C)(=O)=O)CC2)c2ccccc21 [GR 113808]
Z Score: 0.992
Z score [2]: 0.992
Activity [6]: no

C[C@H](Cc1ccc(OCC(=O)[O-])cc1)NC[C@H](O)c1cccc(Cl)c1.[Na+] [BRL 37344 sodium]
Z Score: −1.725
Z score [8]: −1.725
Activity [7]: no

O=[N+]([O-])c1cc2nc(O)c(O)nc2cc1[N+](=O)[O-] [DNQX]
Z Score: 0.9307
Z score [8]: 0.931
Activity [7]: no

NC(=NCc1ccccc1)NC(=O)c1nc(Cl)c(N)nc1N [Benzamil hydrochloride]
Z Score [1]: −1.054
Z score [8]: −1.054
Activity [7]: no

CCN(CC)CCNC(=O)c1ccc(N)cc1 [Procainamide hydrochloride]
Z Score [9]: 0.6535
Z score [2]: 0.654
Activity [6]: no

CC(=O)O.CNC(=N)NCCC[C@H](N)C(=O)O [NG-Monomethyl-L-arginine acetate]
Z Score [4]: −1.386
Z score [2]: −1.386
Activity [3]: no

Oc1ccc(C2CNCCc3c2cc(O)c(O)c3Cl)cc1 (stereo not drawn) [Fenoldopam bromide]
Z Score [9]: 0.05219
Z score [2]: 0.052
Activity [7]: no

NSC 95397
Z Score: −1.098
Z score [2]: −1.098
Activity [6]: no

Cl.Cl.c1ccc(CCCN2CCN(CCOC(c3ccccc3)c3ccccc3)CC2)cc1 [GBR-12935 dihydrochloride]
Z Score: −11.27
Z score [2]: −11.274
Activity [6]: yes

COC(=O)[C@H](NC(=O)c1cc(-c2ccccc2)nc2ccccc12)c1ccccc1 [SB 218795]
Z Score: 1.359
Z score [2]: 1.359
Activity [7]: no

Cl.O=c1[nH]oc2c1CCNC2 [THIP hydrochloride]
Z Score: 0.3613
Z score [10]: 0.361
Activity [11]: no

OC[C@H]1O[C@@H](n2cnc3c(Nc4ccccc4)ncnc32)[C@H](O)[C@@H]1O [N6-Phenyladenosine]
Z Score: 0.7283
Z score: 0.728
Activity [5]: no

C[C@H](NC(=O)/C(C#N)=C/c1ccc(O)c(O)c1)c1ccccc1 [Tyrphostin AG 835]
Z Score: 2.23
Z score [10]: 2.230
Activity [11]: no

C[C@@H]1O[C@H](C[N+](C)(C)C)C[C@H]1O.[Cl-] [(B1)-Muscarine chloride]
Z Score: −1.905

CCCCCCCCCCCCCCCCOCC(COCC(F)(F)F)OP(=O)(O)OC (stereo not drawn) [MJ33]
Z Score: 1.364
Z score [2]: 1.364
Activity [3]: no

Cc1nnc(SCC2=C(C(=O)O)N3C(=O)[C@@H](NC(=O)Cn4cnnn4)[C@H]3SC2)s1 [Cefazolin sodium]
Z Score [4]: −2.58
Z score [2]: −2.580
Activity [6]: yes

CC(C(=O)O)c1ccc(CC2CCCC2=O)cc1 (stereo not drawn) [loxoprofen]
Z Score [1]: −0.8833
Z score [2]: −0.883
Activity [7]: no

CC(C)NCC(O)COc1ccc(CCOCC2CC2)cc1 (stereo not drawn) [Betaxolol hydrochloride]
Z Score [9]: 0.9838
Z score [8]: 0.984
Activity [7]: no

C[C@](N)(Cc1ccc(O)cc1)C(=O)O [L-alpha-Methyl-p-tyrosine]
Z Score: −1.8
Z score [2]: −1.800
Activity [3]: no

CCN(c1nc(N)c(C(=O)N=C(N)N)nc1Cl)C(C)C [5-(N-Ethyl-N-isopropyl)amiloride]
Z Score: −0.2886
Z score [10]: −0.289
Activity [11]: no

NCCc1c[nH]c2ccc(O)cc12 [Serotonin hydrochloride]
Z Score (168 h, 3 µM): −2.197
Z score (168 h, 3 µM): −2.197
Activity [7]: no

CCCN(CCC)CCc1c[nH]c2ccc(C(N)=O)cc12.O=C(O)/C=C\C(=O)O
Z Score: −1.73
Z score [8]: −1.730
Activity [7]: no

O=C(O)CCCCC1CCSS1 (stereo not drawn) [(B1)-alpha-Lipoic Acid]
Z Score: 0.3418

CCOC(=O)C1=C(C)NC(C)=C(C(=O)OC)C1c1cccc([N+](=O)[O-])c1 (stereo not drawn) [Nitrendipine]
Z Score [4]: −1.61
Z score [2]: −1.610

COc1cccc2c1[C@@H]1CN(CCCCn3c(=O)[nH]c4c(sc5ncc(-c6ccccc6)nc54)c3=O)C[C@@H]1CO2 [Fiduxosin hydrochloride]
Z Score [9]: 0.2005
Z score [2]: 0.200
Activity [7]: no

CN(C(=O)Cc1ccc(Cl)c(Cl)c1)C(CN1CCCC1)c1cccc(OCC(=O)O)c1.Cl (stereo not drawn) [ICI 204,448 hydrochloride]
Z Score: −0.3636
Z score [2]: −0.364
Activity [7]: no

C[C@H](Cc1ccc2c(c1)OC(C(=O)[O-])(C(=O)[O-])O2)NC[C@H](O)c1cccc(Cl)c1.[Na+].[Na+] [CL 316, 243]
Z Score: 0.6212
